Test results from patent publication US9241996B2, “Photochemical internalisation of kinase inhibitors” (PCI BIOTECH AS, priority 2008, dated 2016).
Where two headings read alike, the source gives them in different places.

What was measured:
[1] = system: multi-drug resistant NCI-ADR-RES cancer cell line; assay: CellTiter-Blue cell survival after PCI (TPCS2a, LumiSource illumination) with TKI, NCI-ADR-RES; type: cell-based; settings: for IC50: Homo sapiens, NCI/ADR-RES, read-out: nilotinib dose needed to achieve 50% cell killing
Protocol: TPCS2a was diluted into growth medium at 0.4 μg/ml (NCI-H460) or 0.8 μg/ml (NCI-ADR-RES) and 25 μl was added to each test well (final assay concentrations 0.2 μg/ml and 0.4 μg/ml, respectively).
The plates were washed 6 times with 50 μl wash buffer using an EMBLA 384-well plate washer.
The plates were washed as before.

[2] = at typical therapeutic doses per patient per day; cited from earlier work
[3] = system: NCI-H460 human lung cancer cell line; assay: CellTiter-Blue cell survival after PCI (TPCS2a, LumiSource illumination) with TKI, NCI-H460; settings: for IC50: Homo sapiens, read-out: nilotinib dose needed to achieve 50% cell killing
[4] = system: A431 human epithelial carcinoma cell line; assay: Cell survival by Coulter Counter after TPCS2a photochemical treatment and imatinib (Example 1); type: cell-based
Protocol: Cells from the A431 human epithelial carcinoma cell line (75,000 cells/well, 1.5 mL/well) were seeded into 6-well plates (Nunc, Denmark), incubated for 5 hours, then 0.1 μg/mL TPCS2a was added and the cells were further incubated for 18 h (5% v/v CO2, 37° C. in DMEM medium with penicillin 100 U/mL, Glutamine 2 mM, Streptomycin 100 μg/mL). The cells were washed twice with medium (1 mL/well), incubated for 4 hours (37° C., 5% v/v CO2) in serum-containing medium and illuminated for 1, 2 or 4 minutes as shown in FIG. 2.
The cells were washed twice with Trypsin EDTA (200 μL/well) and incubated for 5 minutes (400 μL/well), then 1.5 mL medium was added and the mixture transferred to 10 mL tubes and centrifuged for 3 minutes at 1000 rpm. After removing the medium, 1 mL PBS (Phosphate Buffered Saline) was added and the solution mixed thoroughly. 750 μL was transferred to a beaker with 20 mL PBS and the amount of viable cells was determined with a Coulter Counter apparatus.

[5] = system: A-431 human skin carcinoma; assay: Growth inhibition (Coulter counting, survival fraction) after PDT with TPPS2a, AG1478 and the combination (Example 3); type: cell-based; settings: for synergy/antagonism value F: p=0.05
Protocol: The studies were performed using the EGFR positive cell line A-431 human skin carcinoma (ATCC, CRL 1555). The A-431 cells were subcultured two or three times a week in DMEM (Bio Whitaker Europe, Velviers, Belgium). Media were supplied with 10% fetal calf serum (FCS) (GIBCO BRL, Paisley, UK), 100 U/ml penicillin, 100 U/ml streptomycin (Sigma, St. Loice, MO) and 2 mM glutamine (Bio Whittaker, Velviers, Belgium). The cells were grown and incubated in 75 cm^2 flasks (Nunc, Roskilde, Denmark) at 37° C. in a humidified atmosphere containing 5% CO2.
(§1) A-431 cells were seeded out and left to fasten for 6 hrs, or longer as described for the different combination treatment regimes with Tyrphostin AG1478, before an 18 hour incubation with 0.1 ug/ml LumiTrans (TPPS2a, meso-tetraphenylporphine with two sulfonate groups on adjacent phenyl rings) (PCI Biotech AS, Oslo, Norway). The cells were then washed twice with drug free medium and chased in new drug free medium for 4 hrs to wash the TPPS2a off the plasma membrane. Cells were then exposed to blue light from LumiSource (PCT Biotech AS) consisting of 4 light tubes delivering light with λ=[…], maximum at 435 nm and irradiance=13.5 mW/cm^2 at different doses as indicated in the figures.
Growth inhibition measurements were carried out after incubation of the cells for 72 hrs with different concentrations of AG1478 directly after exposure to light. Cell counting was performed with an in-house made Coulter counter after trypsination and resuspension in PBS. Two parallels of each sample were made, and the experiments were reproduced twice at least.
For each experiment the survival fraction (SF) of cells was found by dividing the number of treated cells by the average number of untreated cells in the two parallels. The expected additive effect was computed as SFadd=SFPDT×SFTKI where SFPDT and SFTKI refers to the observed effect after PDT or TKI treatment alone. SFadd was then compared to the observed effect of the combined treatment, SFcomb, using the synergy/antagonism value F F=log SFadd/log SFComb=log SFTKI+log SFPDT−log SFcorab
Antagonistic effects would result in negative F values. Significant deviations of F from zero were established through t-tests.

EGFR = molecular target: T1, EGFR (Homo sapiens, UniProt P00533); assay: Western blotting of total and phosphorylated EGFR after PDT, AG1478 and the combination; type: cell-based
T1 construct: time dependent effects on total and phosphorylated EGFR after PDT˜LD50, AG1478 (TKI)˜LD50 and the combination treatment in A-431 cells; endogenous in cells; host or cells: A-431 human skin carcinoma cells (ATCC, CRL 1555)
T1 sequence (P00533 25-1210): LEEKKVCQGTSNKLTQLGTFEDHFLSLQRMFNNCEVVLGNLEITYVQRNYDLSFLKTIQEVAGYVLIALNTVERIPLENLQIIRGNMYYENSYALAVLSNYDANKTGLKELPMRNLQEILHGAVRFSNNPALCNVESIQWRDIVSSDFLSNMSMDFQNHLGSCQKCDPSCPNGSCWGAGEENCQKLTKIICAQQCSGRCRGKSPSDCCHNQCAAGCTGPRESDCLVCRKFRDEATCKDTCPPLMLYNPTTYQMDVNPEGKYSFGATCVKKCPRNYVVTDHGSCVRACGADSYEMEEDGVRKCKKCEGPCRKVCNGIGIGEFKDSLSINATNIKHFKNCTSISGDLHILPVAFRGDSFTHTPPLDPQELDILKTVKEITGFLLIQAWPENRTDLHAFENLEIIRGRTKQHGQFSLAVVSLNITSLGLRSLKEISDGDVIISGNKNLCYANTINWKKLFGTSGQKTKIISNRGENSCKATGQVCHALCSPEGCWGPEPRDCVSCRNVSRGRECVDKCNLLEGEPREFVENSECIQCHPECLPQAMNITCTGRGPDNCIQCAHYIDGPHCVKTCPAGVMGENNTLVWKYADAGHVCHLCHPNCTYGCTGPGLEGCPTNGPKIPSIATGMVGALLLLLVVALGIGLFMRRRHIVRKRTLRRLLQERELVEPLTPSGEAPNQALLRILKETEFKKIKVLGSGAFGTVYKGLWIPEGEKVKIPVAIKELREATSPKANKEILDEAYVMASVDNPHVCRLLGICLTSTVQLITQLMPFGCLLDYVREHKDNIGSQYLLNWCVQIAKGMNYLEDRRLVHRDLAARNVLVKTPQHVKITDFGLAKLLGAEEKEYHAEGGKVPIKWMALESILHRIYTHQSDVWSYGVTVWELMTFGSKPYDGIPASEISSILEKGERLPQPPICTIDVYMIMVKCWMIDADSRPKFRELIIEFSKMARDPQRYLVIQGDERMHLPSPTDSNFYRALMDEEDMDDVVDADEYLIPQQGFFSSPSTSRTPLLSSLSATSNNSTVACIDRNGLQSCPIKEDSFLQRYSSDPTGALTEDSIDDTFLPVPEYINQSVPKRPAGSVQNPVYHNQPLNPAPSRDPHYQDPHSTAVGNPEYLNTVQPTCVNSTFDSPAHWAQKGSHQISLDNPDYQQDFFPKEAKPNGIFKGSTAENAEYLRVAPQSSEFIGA
Protocol: as §1
At indicated times after light exposure the cell-medium was removed and cells were incubated for 2 minutes with 100 ng/ml EGF. Cells were then placed on ice and the sample preparation was performed as described before (Weyergang et al., 2007, Biochem. Pharmacol., 74, p226-235). The same amount of lysed cells from each sample, as measured by the absorption of nucleic acids at 260 nm, was subjected to gel electrophoresis on 12% SDS/polyacrylamide gels and blotted to Hybond-P PVDF membranes (Amersham Biosciences, Amersham Place, UK). Immunodetection was carried out using antibodies from Cell Signal Technology (Cell Signalling Technology Beverly, Mass.); EGFR antibody (#2232), Phospho-EGFR antibody (#2236), Anti-mouse IgG, HRP-linked Antibody (#7076) Anti-rabbit IgG, HRP-linked Antibody (#7074). ECL Plus Western blotting Detection Reagents, STORM and Image Quant from GE Healthcare (GE Healthcare, Amersham Place, UK) was used to detect protein bands on the membrane.

A431 cells = assay: Cell survival by MTT assay after TPCS2a photochemical treatment and imatinib (Example 2); type: cell-based, human; settings: imatinib up to 25 μM
Protocol: A431 cells (2500 cells/well, 100 μL/well) were seeded into 96-well plates (Nunc, Denmark) and incubated for 5 hours, then 0.1 μg/mL TPCS2a was added and incubated for 18 h (5% v/v CO2, 37° C., DMEM medium with penicillin 100 U/mL, Glutamine 2 mM, Streptomycin 100 μg/mL). […] After a further 72 hours incubation, cell survival was measured by the MTT assay.
The MTT method is based on reduction of a water-soluble tetrazolium salt (MTT) to a purple, insoluble formazan product by mitochondrial dehydrogenases present in living, metabolically active cells. 100 μL medium containing 0.25 μg MTT was added to the cells, followed by 1 h and 30 min of incubation (37° C., 5% v/v CO2). The resulting formazan crystals were dissolved by adding 100 μl DMSO (Sigma, Mo., USA) per well. The 96 well plate was read by a Multiscan EX micro plate reader (Labsystems, Finland) with a 570 nm band pass filter.

Cc1cn(-c2cc(NC(=O)c3ccc(C)c(Nc4nccc(-c5cccnc5)n4)c3)cc(C(F)(F)F)c2)cn1 [nilotinib]
IC50 ([1]; 0 h, 0 min illumination): ~20 µM | IC50 ([1]; 4 min, 4 min illumination, TPCS2a 0.4 μg/ml): ~10 µM | typical blood concentrations [2]: 1 to 5 µM | IC50 ([3]; NCI-H460, 0 h): 6 µM | IC50 ([3]; NCI-H460, 5 min): ~1.7 µM

C#Cc1cccc(Nc2ncnc3cc(OCCOC)c(OCCOC)cc23)c1 [erlotinib]
erlotinib dose at which 20% cell killing was achieved ([1]; 2 min illumination, TPCS2a 0.4 μg/ml): about 100 μM | erlotinib dose at which 20% cell killing was achieved ([1]; 3 min illumination, TPCS2a 0.4 μg/ml): about 100 μM | erlotinib dose at which 20% cell killing was achieved ([1]; 4 min illumination, TPCS2a 0.4 μg/ml): about 10 μM | typical blood concentrations [2]: 1 to 10 µM | erlotinib dose needed to induce 30% cell killing ([3]; 2 min illumination, TPCS2a 0.2 μg/ml): 14 µM | erlotinib dose needed to induce 30% cell killing ([3]; 3 min illumination, TPCS2a 0.2 μg/ml): 4 µM | potentiation of the effect by photochemical internalisation ([3]; erlotinib, NCI-H460, 3 min versus no illumination): 10 times | erlotinib dose needed to induce 30% cell killing ([3]; no illumination): 43 µM

tetraphenyl chlorin disulfonate [TPCS2a]
cell survival, illumination alone ([4]; TPCS2a 0.1 μg/mL, illuminated 1, 2 or 4 minutes, no imatinib): cell survival decreases with increasing illumination time in a dose-dependent manner

O=S(=O)(O)c1ccc(-c2c3nc(c(-c4ccc(S(=O)(=O)O)cc4)c4ccc([nH]4)c(-c4ccccc4)c4nc(c(-c5ccccc5)c5ccc2[nH]5)C=C4)C=C3)cc1 [PDT, meso-tetraphenylporphine with two sulfonate groups on adjacent phenyl rings]
average survival fraction, PDT treatment only ([5]; TPPS2a 0.1 ug/ml and blue light, mean of three independent experiments): 0.61 | phosphorylated EGFR after PDT alone (EGFR; 1-4 hrs after PDT with LD50, A-431 cells): No decrease in phosphorylated EGFR was observed | phospho-EGFR after PDT alone (EGFR; measured 1 hour after PDT, doses reducing relative viability up to 10% of untreated, A-431 cells): did not result in a pronounced reduction

COc1cc2ncnc(Nc3cccc(Cl)c3)c2cc1OC [AG1478, Tyrphostin AG1478]
synergy/antagonism value F ([5]; 4 uM AG1478 with PDT): 0.18±0.09 | synergy/antagonism value F ([5]; 5 uM AG1478 with PDT): 0.17±0.08 | average survival fraction, TKI treatment only ([5]; AG1478 72 hrs, mean of three independent experiments (FIG. 6: 4 and 5 μM TKI)): 0.41 | average survival fraction, two treatments combined ([5]; AG1478 administrated directly after light exposure (PDT), mean of three independent experiments): 0.16 | synergy/antagonism value F, mean and st. error ([5]; AG1478 between 1 and 5 μM with PDT, p=0.005): 0.15 ± 0.05 | synergy/antagonism parameter F of the experiments ([5]; AG1478 with PDT, three independent experiments): positive and statistically significant from 0 | calculated additive effect of the two treatments (SFadd) ([5]; SFPDT×SFTKI): 0.24 | EGFR phosphorylation (EGFR; 4 μM AG1478 alone, 1-4 hrs, A-431 cells): strong attenuation of EGFR phosphorylation | EGFR phosphorylation, combination therapy (EGFR; PDT (LD50) and AG1478, A-431 cells): same decrease in EGFR phosphorylation as that observed with the AG1478 treatment alone

Cc1ccc(NC(=O)c2ccc(CN3CCN(C)CC3)cc2)cc1Nc1nccc(-c2cccnc2)n1 [imatinib]
cytotoxicity versus photochemical treatment alone ([4]; imatinib 5×10^-6 M, TPCS2a 0.1 μg/mL, illuminated 1, 2 or 4 minutes, 72 hour incubation): substantially higher cytotoxicity | effect on cell survival ([4]; imatinib 5×10^-6 M, without illumination, TPCS2a-treated A431 cells, 72 hour incubation): no significant effect on cell survival | cytotoxicity of imatinib alone (A431 cells; 0 s illumination, 72 hours): only modest cytotoxicity even at the highest dose | cytotoxic effect with illumination (A431 cells; TPCS2a 0.1 μg/mL, 60 or 120 s illumination, corrected for photochemical treatment alone): illumination increased the cytotoxic effect of imatinib in a light dose-dependent manner
